Format in all cases: cell-based, human
The test system of test [1] is p-p53 (Ser15). The test can be described thus: Western Blot for p-p53 (Ser15) in HCT116 cells. The note with it: HCT116, 24 and 48 hours, 1 µM (control). As to the method:
Treated cells were directly lysed in NP40 cell lysis buffer (Invitrogen, Grand Island, NY, USA) containing protease and phosphatase inhibitors. Protein concentrations were measured colorimetrically (DC Protein Assay, Bio-Rad Laboratories, Hercules, CA, USA). Proteins were separated by SDS - polyacrylamide gel electrophoresis and blotted onto nitrocellulose membranes (Whatman™, Vienna, AUT). Equal loading was checked by Ponceau S (SERVA, Heidelberg, GER) staining. Bound antigen was visualized with the enhanced chemiluminescence detection system (Roche Diagnostics, Indianapolis, IN, USA). These procedures were performed according to the manufacturer’s protocols. Antibodies specific for the following proteins of interest were used: pChk1 (Ser296), p-p53 (Ser15), β-Tubulin and GAPDH were obtained from Cell Signaling Technology (Danvers, MA, USA) at 1∶1000 dilution. Secondary antibodies were peroxidase-tagged goat anti-rabbit or anti-mouse IgGs (Cell Signaling Technology) (1∶2000).

Test [2] deals with HeLa cells. The test can be described thus: DNA replication rate (BrdU incorporation ELISA). The note with it: 24 hours treatment then 24 hours in normal growth medium. As to the method: (§1) HeLa and HCT116 cells were plated in black 96-well plates. After cells were allowed to recover for 24 hours NVX-412 or CPT was added in fresh growth medium. After 24 hours of incubation a chemiluminescent BrdU Incorporation ELISA (Roche Applied Science, Penzberg, Germany) was performed with half of the plates according to the manufacturer’s protocol. Cells in the remaining plates were allowed to recover for 24 hours in normal growth medium before DNA replication was measured (wash-out experiment). To check whether a possible decline in DNA replication rate is not simply due to lower cell numbers because of cell death induction, the proportion of viable cells was determined in parallel by a MTT-based cytotoxicity assay according to the manufacturer’s protocol (EZ4U, Biomedica, Vienna, Austria). Colorimetric (at 492 and 620 nm) and chemiluminescent measurements were performed using a FLUOstar OPTIMA (BMG Labtech, Ortenberg, Germany).

The subject of test [3] is HCT116 cells. The test is described as follows: DNA replication rate (BrdU incorporation ELISA). The note with it: HCT116, 24 hours treatment then 24 hours in normal growth medium. As to the method: as §1
(In general: Dividing cells build labelled thymidine or BrdU into new DNA.)

In test [4] the test system is p-p53 (Ser15). The test can be described thus: Immunofluorescence staining of p-p53 (Ser15) in HCT116 cells. The settings on record: HCT116, 24 hours, 1 µM (positive control). As to the method: (§2) HCT116 and HeLa cells were seeded on glass cover slips in 6-well plates. 24 hours after plating, HCT116 cells were incubated with 0.15, 0.5 and 1 µM NVX-412 and 1 µM CPT for 24 hours for staining of p-p53. For investigating γH2AX, HeLa cells were incubated with 0.21, 0.5 and 1 µM NVX-412 and 1 µM CPT for 3 or 24 hours. Additionally, cells were allowed to recover for 24 hours in normal growth medium after 24 hours of incubation with NVX-412 or CPT (wash-out experiment). After the respective treatments, cells were washed and fixed with 4% methanol-free formaldehyde (Polysciences Inc. Warrington, PA, USA) for 15 minutes at room temperature and then permeabilized with 0.2% Triton X-100/PBS for 2 minutes at room temperature. After blocking with goat serum (5%) in 1% BSA/0.3% Triton X-100/PBS, the respective primary antibody was added and cells were incubated at 4°C overnight. Antibodies used were: mouse p-p53 (Ser15) (Cell Signaling Technology, Danvers, MA, USA) at 1∶100 dilution and mouse p-H2AX (Ser139) (Millipore, Billerica, MA, USA) at 1∶1000 dilution in 1% BSA/PBS, respectively. Cells were then washed 3 times for 10 minutes with 0.25% BSA/0.1% Triton X-100/PBS and incubated with the Alexa Fluor 488 conjugated secondary anti-mouse antibody (1∶1000 in 0.25% BSA/0.1% Triton X-100/PBS) for 1 hour at room temperature in the dark. Cells were washed 3 times for 10 minutes with 0.05% Tween-20/PBS containing Hoechst 33342 (Sigma Aldrich, Vienna, AUT) and mounted with mounting medium (Fluoprep, bioMérieux, Marcy l'Etoile, FRA). Fluorescence was immediately recorded on a Zeiss LSM700 laser scanning microscope.

Test [5] concerns HeLa cells. The test can be described thus: Flow cytometric cell cycle analysis. The settings on record: 24 hours. As to the method: (§3) HT-29, HeLa and HCT116 cells were plated in 6-well plates. […] CPT was used at 50 nM and 1 µM. To analyze the cell cycle distribution, cells were collected after 24 hours of incubation and washed with PBS. Cells were fixed in 70% ethanol for at least 2 hours. For analysis, cells were transferred into PBS, incubated with RNAse A (0.04 µg/ml final concentration) for 30 minutes at 37°C, treated with […] propidium iodide for 30 min at 4°C and then analyzed by flow cytometry using BD FACScan (Becton, Dickinson and Company, Franklin Lakes, NJ, USA). The resulting DNA histograms were quantified using ModFit LT (Verity Software House, Topsham, ME, USA).

The subject of test [6] is HT-29 cells. The test can be described thus: Flow cytometric cell cycle analysis. The settings on record: HT-29, 24 hours. Here is the method: as §3
For test [7], the system named is HCT116 cells. The test is described as follows: Flow cytometric cell cycle analysis. The settings on record: HCT116, 24 hours. Here is the method:
as §3

In test [8] the test system is γH2AX (Ser139). The test is described as follows: Immunofluorescence staining and quantification of γH2AX in HeLa cells. Here is the method:
as §2
The common procedure for assessing γH2AX induction is to count γH2AX foci. Since with NVX-412 and the positive control CPT γH2AX activation was that strong, no distinguishable and countable foci were seen. Therefore, the average γH2AX fluorescence intensity per nucleus was determined. To this end, γH2AX intensities within a certain field were measured using Quantity One –4.6.9 (Basic freeware version, Bio-Rad Laboratories, Hercules, CA, USA) and were divided by the number of nuclei in this field.

Test [9] has as its system HCT116 p53+/+ or p53−/− cells. The test can be described thus: Determination of p53 status dependency. The settings on record: HCT116 p53+/+ vs p53−/−, 72 hours, viable cell numbers. Here is the method: (§4) The isogenic colon carcinoma cells lines HCT116 p53+/+ or p53−/− and RKO p53+/+ or p53−/− were cultured in 12-well plates. After a recovery period of 24 hours, NVX-412 or Nutlin-3 was added in fresh growth medium at the indicated concentrations. […] After 24 or 72 hours cell numbers were determined with a Beckman Coulter ViCell XR.

For test [10], the system named is RKO p53+/+ or p53−/− cells. The test is described as follows: Determination of p53 status dependency. The settings on record: RKO p53+/+ vs p53−/−, 72 hours, viable cell numbers. As to the method: as §4

As for `CC[C@@]1(O)C(=O)OCc2c1cc1n(c2=O)Cc2cc3ccccc3nc2-1` [CPT, (S)-(+)-Camptothecin, reference compound], the “Phosphorylated p53 (Western Blot)” value in test [1] is “strong induction”. The “DNA replication rate after recovery (wash-out)” value in test [2] and in [3] was “a recovery was only observed at the lowest concentration tested” throughout. Besides, the “p-p53 (Ser15) immunofluorescence staining” value in test [4] is “positive for nuclear staining of p-p53 (Ser15)”. For the same molecule, the Cell cycle distribution result in test [5] (50 nM) is reported as “G2/M arrest”; in test [5] (1 µM) it was “S-phase arrest”; in test [6] (50 nM), “G2/M arrest”; in test [6] (1 µM), “S-phase arrest”; in test [7] (50 nM) it was “G2/M-phase arrest”; in [7] (1 µM) it was “most of the cells were already dead”. Further, the γH2AX induction result in test [8] (3 hours) was “Only a slight induction of γH2AX”. Besides, the “γH2AX levels after recovery (wash-out)” value in test [8] (24 hours treatment then 24 hours without drug) is recorded as “not reversible”.
In the case of `COc1ccc(C2=N[C@@H](c3ccc(Cl)cc3)[C@@H](c3ccc(Cl)cc3)N2C(=O)N2CCNC(=O)C2)c(OC(C)C)c1` [Nutlin-3, reference compound], the “p53 status dependency of sensitivity” value in test [9] and in [10] was “p53+/+ cells being much more sensitive than p53−/− cells” each time.

The values are drawn from PMC3441706 (PLoS ONE, 2012).
